Results as given in patent US7541020B2, “Aminoalkyl glucosaminide phosphate compounds and their use as adjuvants and immunoeffectors” (priority 1997, dated 2009).
Like-named read-outs stand apart in the source and are kept apart here.

Assays:
[1] = tested on: E.G7 (OVA) cells; conditions: s.c. 25 μg OVA in AGP preparation, spleen cells 21 days later
[2] = tested on: influenza A/HK/68; format: in vivo, ICR mice
[3] = tested on: TNF-α; test: Cytokine induction in human whole blood ex vivo culture: TNF-α (ELISA); format: cell-based; conditions: 4 hr
Description: (§1) AGP compounds were solubilized in 10% EtOH-water and diluted to various concentrations. Fifty μl of each dilution were added to 450 μl of whole human blood. Controls were treated with culture media (RPMI). The reaction mixture was incubated at 37° C. for 4 hr with constant mixing on a rotator. Sterile PBS (1.5 ml) was added to the reaction mixture, the cells were centrifuged and the supernatents removed for cytokine testing. The concentration of TNF-α and IL-1β in each supernatent was determined using immunoassay ELISA kits from R&D Systems.

[4] = tested on: IL-1β; test: Cytokine induction in human whole blood ex vivo culture: IL-1β (ELISA); format: cell-based; conditions: 4 hr
Description: as §1

[5] = tested on: tetanus toxoid; conditions: mouse, in vivo, sc
[6] = 25 μg AGP + 1 HAU FI-Flu in 0.2% TEoA, once, bled day 14, Table 11

N-[(R)-3-Hexanoyloxytetradecanoyl]-O-[2-deoxy-4-O-phosphono-2-[(R)-3-decanoyloxytetradecanoylamino]-3-O-[(R)-3-decanoyloxytetradecanoyl]-α-D-glucopyranosyl]-L-serine Triethylammonium Salt [B37]
% Cytotoxicity ([1]; E:T 12.5:1): 6%
% Cytotoxicity ([1]; E:T 25:1): 8%
% Cytotoxicity ([1]; E:T 50:1): 12%

N-[(R)-3-Undecanoyloxytetradecanoyl]-O-[2-deoxy-4-O-phosphono-2-[(R)-3-undecanoyloxytetradecanoylamino]-3-O-[(R)-3-undecanoyloxytetradecanoyl]-β-D-glucopyranosyl]-L-serine Triethylammonium Salt [B13]
Percent Survival ([2]; mouse, in vivo): 50%
Titer^−1 IgG1 ([2]; mouse, in vivo): 800
Titer^−1 IgG2a ([2]; mouse, in vivo): 400
Titer^−1 IgG2b ([2]; mouse, in vivo): 800
Titer^−1 Total IgG ([2]; mouse, in vivo): 1600
TNF-α ([3]; Dosage 100 ng/ml, Table 17): 302 pg/mL
TNF-α ([3]; Dosage 500 ng/ml, Table 17): 411 pg/mL
TNF-α ([3]; Dosage 1000 ng/ml, Table 15): 740 pg/mL
TNF-α ([3]; Dosage 1000 ng/ml, Table 17): 478 pg/mL
TNF-α ([3]; Dosage 5000 ng/ml, Table 15): 716 pg/mL
TNF-α ([3]; Dosage 5000 ng/ml, Table 17): 592 pg/mL
TNF-α ([3]; Dosage 10,000 ng/ml, Table 15): 775 pg/mL
TNF-α ([3]; Dosage 10,000 ng/ml, Table 17): 583 pg/mL
IL-1β ([4]; Dosage 100 ng/ml, Table 17): 261 pg/mL
IL-1β ([4]; Dosage 500 ng/ml, Table 17): 352 pg/mL
IL-1β ([4]; Dosage 1000 ng/ml, Table 15): 177 pg/mL
IL-1β ([4]; Dosage 1000 ng/ml, Table 17): 327 pg/mL
IL-1β ([4]; Dosage 5000 ng/ml, Table 15): 187 pg/mL
IL-1β ([4]; Dosage 5000 ng/ml, Table 17): 390 pg/mL
IL-1β ([4]; Dosage 10,000 ng/ml, Table 15): THTC*
IL-1β ([4]; Dosage 10,000 ng/ml, Table 17): 282 pg/mL
Anti-tetanus toxoid IgG2a T/C [5]: 220
Anti-tetanus toxoid IgG2a titer [5]: 3740
Anti-tetanus toxoid IgG2b T/C [5]: >208
Anti-tetanus toxoid IgG2b titer [5]: >13,760
Anti-tetanus toxoid IgM T/C [5]: 3.9
Anti-tetanus toxoid IgM titer [5]: 6080
% Cytotoxicity ([1]; E:T 12.5:1): 10%
% Cytotoxicity ([1]; E:T 25:1): 15%
% Cytotoxicity ([1]; E:T 50:1): 28%

N-[(R)-3-Decanoyloxytetradecanoyl]-O-[2-deoxy-4-O-phosphono-2-[(R)-3-hexanoyloxytetradecanoylamino]-3-O-[(R)-3-decanoyloxytetradecanoyl]-α-D-glucopyranosyl]-L-serine Triethylammonium Salt [B36]
% Cytotoxicity ([1]; E:T 12.5:1): 4%
% Cytotoxicity ([1]; E:T 25:1): 7%
% Cytotoxicity ([1]; E:T 50:1): 13%

N-[(R)-3-Hydroxytetradecanoyl]-O-[2-deoxy-4-O-phosphono-2-[(R)-3-dodecanoyloxytetradecanoylamino]-3-O-[(R)-3-tetradecanoyloxytetradecanoyl]-α-D-glucopyranosyl]-L-serine Triethylammonium Salt [B43]
% Cytotoxicity ([1]; E:T 12.5:1): 6%
% Cytotoxicity ([1]; E:T 25:1): 12%
% Cytotoxicity ([1]; E:T 50:1): 19%

N-[(R)-3-Nonanoyloxytetradecanoyl]-O-[2-deoxy-4-O-phosphono-2-[(R)-3-nonanoyloxytetradecanoylamino]-3-O-[(R)-3-nonanoyloxytetradecanoyl]-β-D-glucopyranosyl]-L-serine Triethylammonium Salt [B16]
Percent Survival ([2]; mouse, in vivo): 40%
Titer^−1 IgG1 ([2]; mouse, in vivo): 1600
Titer^−1 IgG2a ([2]; mouse, in vivo): 100
Titer^−1 IgG2b ([2]; mouse, in vivo): 800
Titer^−1 Total IgG ([2]; mouse, in vivo): 800
TNF-α ([3]; Dosage 500 ng/ml, Table 17): 55 pg/mL
TNF-α ([3]; Dosage 1000 ng/ml, Table 15): 155 pg/mL
TNF-α ([3]; Dosage 1000 ng/ml, Table 17): 72 pg/mL
TNF-α ([3]; Dosage 5000 ng/ml, Table 15): 277 pg/mL
TNF-α ([3]; Dosage 5000 ng/ml, Table 17): 114 pg/mL
TNF-α ([3]; Dosage 10,000 ng/ml, Table 15): 291 pg/mL
TNF-α ([3]; Dosage 10,000 ng/ml, Table 17): 121 pg/mL
IL-1β ([4]; Dosage 500 ng/ml, Table 17): 17.1 pg/mL
IL-1β ([4]; Dosage 1000 ng/ml, Table 15): 39 pg/mL
IL-1β ([4]; Dosage 1000 ng/ml, Table 17): 19.5 pg/mL
IL-1β ([4]; Dosage 5000 ng/ml, Table 15): 53 pg/mL
IL-1β ([4]; Dosage 5000 ng/ml, Table 17): 34.0 pg/mL
IL-1β ([4]; Dosage 10,000 ng/ml, Table 15): 55 pg/mL
IL-1β ([4]; Dosage 10,000 ng/ml, Table 17): 41.0 pg/mL
Anti-tetanus toxoid IgG2a T/C [5]: 66.8
Anti-tetanus toxoid IgG2a titer [5]: 1135
Anti-tetanus toxoid IgG2b T/C [5]: 104
Anti-tetanus toxoid IgG2b titer [5]: 6880
Anti-tetanus toxoid IgM T/C [5]: 1.6
Anti-tetanus toxoid IgM titer [5]: 2560
% Cytotoxicity ([1]; E:T 12.5:1): 20%
% Cytotoxicity ([1]; E:T 25:1): 29%
% Cytotoxicity ([1]; E:T 50:1): 42%

N-[(R)-3-Hexanoyloxytetradecanoyl]-O-[2-deoxy-4-O-phosphono-2-[(R)-3-decanoyloxytetradecanoylamino]-3-O-[(R)-3-hexanoyloxytetradecanoyl]-α-D-glucopyranosyl]-L-serine Triethylammonium Salt [B39]
% Cytotoxicity ([1]; E:T 12.5:1): 13%
% Cytotoxicity ([1]; E:T 25:1): 21%
% Cytotoxicity ([1]; E:T 50:1): 33%

N-[(R)-3-Hexanoyloxytetradecanoyl]-O-[2-deoxy-4-O-phosphono-2-[(R)-3-hexanoyloxytetradecanoylamino]-3-O-[(R)-3-decanoyloxytetradecanoyl]-α-D-glucopyranosyl]-L-serine Triethylammonium Salt [B38]
% Cytotoxicity ([1]; E:T 12.5:1): 16%
% Cytotoxicity ([1]; E:T 25:1): 25%
% Cytotoxicity ([1]; E:T 50:1): 38%

N-[(R)-3-Decanoyloxytetradecanoyl]-O-[2-deoxy-4-O-phosphono-2-[(R)-3-hexanoyloxytetradecanoylamino]-3-O-[(R)-3-hexanoyloxytetradecanoyl]-α-D-glucopyranosyl]-L-serine Triethylammonium Salt [B40]
% Cytotoxicity ([1]; E:T 12.5:1): 8%
% Cytotoxicity ([1]; E:T 25:1): 12%
% Cytotoxicity ([1]; E:T 50:1): 20%

N-[(R)-3-Decanoyloxytetradecanoyl]-O-[2-deoxy-4-O-phosphono-2-[(R)-3-decanoyloxytetradecanoylamino]-3-O-[(R)-3-hexanoyloxytetradecanoyl]-α-D-glucopyranosyl]-L-serine Triethylammonium Salt [B35]
% Cytotoxicity ([1]; E:T 12.5:1): 2%
% Cytotoxicity ([1]; E:T 25:1): 5%
% Cytotoxicity ([1]; E:T 50:1): 9%

3-Hydroxy-(S)-2-[(R)-3-heptanoyloxytetradecanoylamino]propyl 2-Deoxy-4-O-phosphono-2-[(R)-3-heptanoyloxytetradecanoylamino]-3-O-[(R)-3-heptanoyloxytetradecanoyl]-β-D-glucopyranoside Triethylammonium Salt [B8]
Percent Survival ([2]; mouse, in vivo): 80%
Titer−1 IgG1 ([2]; mouse, in vivo): 3200
Titer−1 IgG2a ([2]; mouse, in vivo): 400
Titer−1 IgG2b ([2]; mouse, in vivo): 1600
Titer−1 Total IgG ([2]; mouse, in vivo): 6400
% Cytotoxicity ([1]; E:T 12.5:1): 15%
% Cytotoxicity ([1]; E:T 25:1): 20%
% Cytotoxicity ([1]; E:T 50:1): 36%

N-[(R)-3-Heptanoyloxytetradecanoyl]-O-[2-deoxy-4-O-phosphono-2-[(R)-3-heptanoyloxytetradecanoylamino]-3-O-[(R)-3-heptanoyloxytetradecanoyl]-β-D-glucopyranosyl]-L-serine Triethylammonium Salt [B18]
Titer^−1 IgG1 [2, 6]: 800
Titer^−1 IgG2a [2, 6]: 800
Titer^−1 IgG2b [2, 6]: 400
Titer^−1 Total IgG [2, 6]: 800
Percent Survival ([2]; […], mortality 21 days, Table 11): 20%
% Cytotoxicity ([1]; E:T 12.5:1): 15%
% Cytotoxicity ([1]; E:T 25:1): 20%
% Cytotoxicity ([1]; E:T 50:1): 36%
